ChEMBL document CHEMBL4808195, “Discovery of heterocyclic substituted dihydropyrazoles as potent anticancer agents” (Bioorg Med Chem Lett, 2021)

Key:
HCC1806 [1] = test: Anticancer activity against human HCC1806 cells assessed as inhibition of cell growth at 10 uM measured by SRB method; type: functional
MDA-MB-231 = test: Anticancer activity against human MDA-MB-231 cells assessed as inhibition of cell growth at 10 uM measured by SRB method; type: functional
NCI-H1975 = test: Anticancer activity against human NCI-H1975 cells assessed as inhibition of cell growth at 10 uM measured by SRB method; type: functional
HCC1806 [2] = test: Anticancer activity against human HCC1806 cells assessed as inhibition of cell proliferation; type: functional, cell-based
HCT-116 = test: Anticancer activity against human HCT-116 cells assessed as inhibition of cell proliferation; type: functional, cell-based
HeLa = test: Anticancer activity against human HeLa cells assessed as inhibition of cell proliferation; type: functional, cell-based
A549 = test: Anticancer activity against human A549 cells assessed as inhibition of cell proliferation; type: functional, cell-based

| SMILES | inhibition at 10 µM (HCC1806 [1]) | inhibition at 10 µM (MDA-MB-231) | inhibition at 10 µM (NCI-H1975) | IC50 (HCC1806 [2]) | IC50 (HCT-116) | IC50 (HeLa) | IC50 (A549) |
| --- | --- | --- | --- | --- | --- | --- | --- |
| CN(C)c1ccc(C2CC(c3ccc(-n4cncn4)cc3)=NN2C(=O)c2ccc(F)cc2)cc1 (stereo unspecified) | 15.6% | 12.5% | -1.1% |  |  |  |  |
| CN1CCN(c2ccc(C3=NN(S(C)(=O)=O)C(c4ccc(N(C)C)cc4)C3)cc2)CC1 (stereo unspecified) | -18.5% | 0.6% | -1.3% |  |  |  |  |
| CN(C)c1ccc(C2CC(c3ccc(-n4ccnc4)cc3)=NN2C(=O)c2ccc(F)cc2)cc1 (stereo unspecified) | 7.1% | 9.4% | -3.5% |  |  |  |  |
| CN(C)c1ccc(C2CC(c3ccc(-n4cncn4)cc3)=NN2C(=O)c2cc(Cl)cc(Cl)c2)cc1 (stereo unspecified) | 5.3% | 9.4% | 8.4% |  |  |  |  |
| CN(C)c1ccc(C2CC(c3ccc(-n4ccnc4)cc3)=NN2)cc1 (stereo unspecified) | -20.9% | 7.6% | 0.1% |  |  |  |  |
| CN1CCN(c2ccc(C3=NN(S(=O)(=O)c4ccc(Br)cc4)C(c4ccc(N(C)C)cc4)C3)cc2)CC1 (stereo unspecified) | 87.1% | 23.7% | 70.8% | 8.65 µM | > 10 µM | > 10 µM | > 10 µM |
| COC(=O)CC(=O)N1N=C(c2ccc(-n3cncn3)cc2)CC1c1ccc(N(C)C)cc1 (stereo unspecified) | -7.8% | 6.8% | 1.5% |  |  |  |  |
| Cc1ccc(C(=O)N2N=C(c3ccc(N4CCN(C)CC4)cc3)CC2c2ccc(N(C)C)cc2)cc1 (stereo unspecified) | -2.5% | -0.7% | -0.4% |  |  |  |  |
| CN(C)c1ccc(C2CC(c3ccc(-n4cncn4)cc3)=NN2C(=O)CCCl)cc1 (stereo unspecified) | -3.4% | 3.7% | -0.7% |  |  |  |  |
| CN(C)c1ccc(C2CC(c3ccc(-n4cncn4)cc3)=NN2S(=O)(=O)c2ccc(C#N)cc2)cc1 (stereo unspecified) | 35.1% | 32.8% | 22.6% |  |  |  |  |
| CN1CCN(c2ccc(C3=NN(C(=O)CCCl)C(c4ccc(N(C)C)cc4)C3)cc2)CC1 (stereo unspecified) | 1.7% | 2.4% | -0.2% |  |  |  |  |
| CN(C)c1ccc(C2CC(c3ccc(-n4cncn4)cc3)=NN2C(=O)c2ccc(C(F)(F)F)cc2)cc1 (stereo unspecified) | 7% | 16.7% | 11.5% |  |  |  |  |
| C=C(C)C(=O)N1N=C(c2ccc(-n3ccnc3)cc2)CC1c1ccc(N(C)C)cc1 (stereo unspecified) | 1.6% | 4.3% | -3.7% |  |  |  |  |
| CN(C)c1ccc(C2CC(c3ccc(-n4cncn4)cc3)=NN2S(=O)(=O)c2ccc(Br)cc2)cc1 (stereo unspecified) | 26.3% | 10.4% | -0.6% |  |  |  |  |
| CN1CCN(c2ccc(C3=NN(C(=O)c4ccc(F)cc4)C(c4ccc(N(C)C)cc4)C3)cc2)CC1 (stereo unspecified) | 31.8% | 3.5% | 32.2% |  |  |  |  |
| CC(=O)N1N=C(c2ccc(-n3cncn3)cc2)CC1c1ccc(N(C)C)cc1 (stereo unspecified) | 11% | 7.4% | -0.3% |  |  |  |  |
| CN1CCN(c2ccc(C3=NN(S(=O)(=O)C4CC4)C(c4ccc(N(C)C)cc4)C3)cc2)CC1 (stereo unspecified) | 4.7% | 3.7% | 0.2% |  |  |  |  |
| CN(C)c1ccc(C2CC(c3ccc(-n4cncn4)cc3)=NN2C(=O)/C=C/c2ccccc2)cc1 (stereo unspecified) | -3.7% | 8.5% | -2.3% |  |  |  |  |
| CC(=O)N1N=C(c2ccc(N3CCN(C)CC3)cc2)CC1c1ccc(N(C)C)cc1 (stereo unspecified) | -0.8% | -1% | -1.9% |  |  |  |  |
| Cc1ccc(S(=O)(=O)N2N=C(c3ccc(-n4ccnc4)cc3)CC2c2ccc(N(C)C)cc2)cc1 (stereo unspecified) | 66% | 50.8% | 50.5% |  |  |  |  |
| CN(C)c1ccc(C2CC(c3ccc(-n4cncn4)cc3)=NN2C(=O)Cc2ccccc2)cc1 (stereo unspecified) | -6.9% | 2.9% | -4% |  |  |  |  |
| CN(C)c1ccc(C2CC(c3ccc(-n4cncn4)cc3)=NN2S(=O)(=O)c2ccc(F)cc2)cc1 (stereo unspecified) | 24.1% | 12.1% | -0.5% |  |  |  |  |
| CN1CCN(c2ccc(C3=NN(S(=O)(=O)c4ccc(C(F)(F)F)cc4)C(c4ccc(N(C)C)cc4)C3)cc2)CC1 (stereo unspecified) | 27% | 12.1% | 18.9% |  |  |  |  |

| SMILES | inhibition at 10 µM (HCC1806 [1]) | inhibition at 10 µM (MDA-MB-231) | inhibition at 10 µM (NCI-H1975) | IC50 (HCC1806 [2]) | IC50 (HCT-116) | IC50 (HeLa) | IC50 (A549) |
| --- | --- | --- | --- | --- | --- | --- | --- |
| CN(C)c1ccc(C2CC(c3ccc(-n4cncn4)cc3)=NN2)cc1 (stereo unspecified) | 6.8% | 7% | -3.3% |  |  |  |  |
| COC(=O)CC(=O)N1N=C(c2ccc(-n3ccnc3)cc2)CC1c1ccc(N(C)C)cc1 (stereo unspecified) | 2.1% | 2.3% | -0.1% |  |  |  |  |
| CN(C)c1ccc(C2CC(c3ccc(-n4ccnc4)cc3)=NN2S(=O)(=O)c2ccc(C#N)cc2)cc1 (stereo unspecified) | 4.7% | 7.1% | 0.7% |  |  |  |  |
| CN1CCN(c2ccc(C3=NN(S(=O)(=O)c4ccc(OC(F)(F)F)cc4)C(c4ccc(N(C)C)cc4)C3)cc2)CC1 (stereo unspecified) | 70.8% | 10.6% | 26.5% |  |  |  |  |
| Cc1ccc(S(=O)(=O)N2N=C(c3ccc(N4CCN(C)CC4)cc3)CC2c2ccc(N(C)C)cc2)cc1 (stereo unspecified) | 32.2% | 10.7% | 38.1% |  |  |  |  |
| CN(C)c1ccc(C2CC(c3ccc(-n4cncn4)cc3)=NN2S(=O)(=O)c2ccc(C(F)(F)F)cc2)cc1 (stereo unspecified) | 37% | 15.3% | 5.5% |  |  |  |  |
| COC(=O)CC(=O)N1N=C(c2ccc(N3CCN(C)CC3)cc2)CC1c1ccc(N(C)C)cc1 (stereo unspecified) | -8.3% | -0.4% | -2.2% |  |  |  |  |
| CN(C)c1ccc(C2CC(c3ccc(-n4ccnc4)cc3)=NN2S(=O)(=O)c2ccc([N+](=O)[O-])cc2)cc1 (stereo unspecified) | 46.6% | 41.5% | 53% |  |  |  |  |
| CN1CCN(c2ccc(C3=NN(C(=O)c4ccc(C(F)(F)F)cc4)C(c4ccc(N(C)C)cc4)C3)cc2)CC1 (stereo unspecified) | 84.1% | 55.4% | 93.2% | 5.4 µM | > 10 µM | > 100 µM | > 10 µM |
| CN(C)c1ccc(C2CC(c3ccc(-n4cncn4)cc3)=NN2S(C)(=O)=O)cc1 (stereo unspecified) | 10.8% | 7.8% | -3.1% |  |  |  |  |
| CN(C)c1ccc(C2CC(c3ccc(-n4cncn4)cc3)=NN2S(=O)(=O)c2ccc(OC(F)(F)F)cc2)cc1 (stereo unspecified) | 25.2% | 18.5% | 11.1% |  |  |  |  |
| CC(=O)N1N=C(c2ccc(-n3ccnc3)cc2)CC1c1ccc(N(C)C)cc1 (stereo unspecified) | -9.7% | 5% | -2.1% |  |  |  |  |
| CN(C)c1ccc(C2CC(c3ccc(-n4ccnc4)cc3)=NN2C(=O)c2ccc(C(F)(F)F)cc2)cc1 (stereo unspecified) | 28% | 17.9% | 15% |  |  |  |  |
| CN1CCN(c2ccc(C3=NN(S(=O)(=O)c4ccc(F)cc4)C(c4ccc(N(C)C)cc4)C3)cc2)CC1 (stereo unspecified) | 92.3% | 15.7% | 95.7% | 6.1 µM | > 10 µM | > 10 µM | 9.6 µM |
| CN(C)c1ccc(C2CC(c3ccc(-n4ccnc4)cc3)=NN2C(=O)CCCl)cc1 (stereo unspecified) | -5.2% | 2.1% | -2.5% |  |  |  |  |
| Cc1ccc(S(=O)(=O)N2N=C(c3ccc(-n4cncn4)cc3)CC2c2ccc(N(C)C)cc2)cc1 (stereo unspecified) | 27.7% | 20.7% | 20% |  |  |  |  |
| CN(C)c1ccc(C2CC(c3ccc(-n4ccnc4)cc3)=NN2S(C)(=O)=O)cc1 (stereo unspecified) | 11.3% | 12% | -3.8% |  |  |  |  |
| CN1CCN(c2ccc(C3=NN(C(=O)Cc4ccccc4)C(c4ccc(N(C)C)cc4)C3)cc2)CC1 (stereo unspecified) | 1% | 1.9% | -2.8% |  |  |  |  |
| CN(C)c1ccc(C2CC(c3ccc(-n4ccnc4)cc3)=NN2C(=O)c2cc(Cl)cc(Cl)c2)cc1 (stereo unspecified) | 44.5% | 48.8% | 58.7% |  |  |  |  |
| CN(C)c1ccc(C2CC(c3ccc(-n4ccnc4)cc3)=NN2C(=O)Cc2ccccc2)cc1 (stereo unspecified) | 2% | 7.2% | -5.5% |  |  |  |  |
| CN1CCN(c2ccc(C3=NN(C(=O)/C=C/c4ccccc4)C(c4ccc(N(C)C)cc4)C3)cc2)CC1 (stereo unspecified) | 71% | 35.9% | 81% | 9.05 µM | > 10 µM | > 10 µM | > 10 µM |
| CN1CCN(c2ccc(C3=NNC(c4ccc(N(C)C)cc4)C3)cc2)CC1 (stereo unspecified) | 31.2% | 11.4% | 2.4% |  |  |  |  |
